From PubChem BioAssay AID1963873 (Molecular Pharmacology Branch, DTP, NCI, 2024)
The source made the active and inactive calls. How the source made its calls: active means viability on the fitted dose curve at most 10% of control; inactive means the rest.

Test system: 276233-004-R-J1-PDC KRAS spheroids with HUVEC/MSC, viability
Assay: Anticancer human tumor 276233-004-R-J1-PDC patient-derived colon adenocarcinoma cell line growth inhibition [KRAS2]
Settings: for IC50: curve of first compound; for viability, T/C: stronger effect = lower value
Source text: Multicellular complex tumor spheroid response to RAS pathway inhibitors in combination with a targeted agents in patient-derived cell lines with oncogenic KRAS variants from multiple cancer types
A high-throughput screen of multi-cell type tumor spheroids was designed to identify active combinations of targeted small molecules and KRAS pathway inhibitors. Complex spheroids include a stromal component modeled by human endothelial cells (HUVEC) and fibroblasts modeled by human mesenchymal stem cells (MSCs). The concentration ranges selected for each drug and investigational agent were based upon clinically achievable concentrations if the clinical Cmax of the agent was known.
Compounds. The drugs and investigational agents: BI-3406 (NSC825286), BAY-293 (NSC824723), batoprotafib (TNO155; NSC825523), sotorasib (AMG 510; NSC818433), MRTX1257 (NSC819558), elimusertib (BAY 1895344; NSC800525), molibresib (GSK525762; NSC774829), temuterkib (LY3214996; NSC803410), venetoclax (NSC766270), alisertib (NSC759677), olaparib (NSC753686), talazoparib (NSC767125), erdafitinib (NSC781556), ipatasertib (NSC767898), cabozantinib (NSC761068), nintedanib (NSC756659), abemaciclib (NSC768073), docetaxel (NSC628503), trametinib (NSC758246), and sapanisertib (NSC764658) were obtained from the National Cancer Institute (NCI) Developmental Therapeutics Program Chemical Repository. The FDA-approved anticancer drug set is available from the Developmental Therapeutics Program. […] The stock solutions were prepared in dimethyl sulfoxide (DMSO, Sigma-Aldrich, St. Louis, MO, cat. D2650) at 800-fold the tested concentration and stored at -70 degrees C prior to their use. All drugs and investigational agents were tested over a range starting from a high concentration at or near the clinical Cmax and decreasing in half-log increments. If the clinical Cmax for an agent had not been determined, the highest concentration tested was 10 microM.
Cell Culture. All cells were maintained in an incubator at 37 degrees C and 5% CO2 with 95% humidity. The PDC lines were cultured according to standard operating procedures established by the NCI PDMR (https://pdmr.cancer.gov/sops/default.htm). Briefly, all PDCs were thawed and cultured in Matrigel-coated flasks prepared with a working solution of 1X Ham's F-12 nutrient mix, without supplementation (Invitrogen, Waltham, MA, cat. 11765054), 100 U/mL penicillin-streptomycin (Invitrogen, cat. 15140122), and 2.5% Matrigel (Corning Inc., Corning, NY, cat. 354248) for the first three passages. All PDCs were cultured in complete DMEM/F-12 media containing advanced DMEM/F-12 (Invitrogen, cat. 12634028), 4.9% defined fetal bovine serum, heat inactivated (HyClone Laboratories Inc., Logan, UT, cat. SH30070.03HI), 389 ng/mL hydrocortisone (Sigma-Aldrich, cat. H4001), 9.7 ng/mL human EGF recombinant protein (Invitrogen, cat. PHG0313), 23.4 microg/mL adenine (Sigma-Aldrich, cat. A2786), 97.3 U/mL penicillin-streptomycin (Invitrogen, cat. 15140122), 1.9 mM L-glutamine (Invitrogen, cat. 25030081), and 9.7 microM Y-27632 dihydrochloride (Tocris Bioscience, Bristol, United Kingdom, cat. 1254). The PDCs were cultured in complete DMEM/F12 media without 9.7 microM Y-27632 dihydrochloride for at least two passages prior to the screen. The established cell line HOP-62 was cultured in RPMI 1640 medium, HEPES (Invitrogen, cat. 22400105) with 10% defined fetal bovine serum (HyClone Laboratories Inc., cat. SH30070.03) and 2 mM L-glutamine (Invitrogen, cat. 25030081). The pooled donor HUVEC were cultured in endothelial cell growth medium 2 (PromoCell, Heidelberg, Germany, cat. C-22011) and the hMSC were cultured in mesenchymal stem cell growth medium 2 (PromoCell, cat. C-28009). For all experiments, HUVEC and hMSC were used at passages </=5, while the malignant cell lines were used at passages </=15. […]

[1] = second compound 0.1 µM, first compound 0.0316 µM
[2] = second compound 0.1 µM, first compound 0.1 µM
[3] = second compound 0.1 µM, first compound 0.316 µM
[4] = second compound 0.1 µM, first compound 1 µM
[5] = second compound 0.1 µM, first compound 3.16 µM
[6] = second compound 0.1 µM, first compound 10 µM
[7] = second compound 0.316 µM, first compound 0.0316 µM
[8] = second compound 0.316 µM, first compound 0.1 µM
[9] = second compound 0.316 µM, first compound 0.316 µM
[10] = second compound 0.316 µM, first compound 1 µM
[11] = second compound 0.316 µM, first compound 3.16 µM
[12] = second compound 0.316 µM, first compound 10 µM
[13] = second compound 1 µM, first compound 0.0316 µM
[14] = second compound 1 µM, first compound 0.1 µM
[15] = second compound 1 µM, first compound 0.316 µM
[16] = second compound 1 µM, first compound 1 µM
[17] = second compound 1 µM, first compound 3.16 µM
[18] = second compound 1 µM, first compound 10 µM
[19] = second compound 3.16 µM, first compound 0.0316 µM
[20] = second compound 3.16 µM, first compound 0.1 µM
[21] = second compound 3.16 µM, first compound 0.316 µM
[22] = second compound 3.16 µM, first compound 1 µM
[23] = second compound 3.16 µM, first compound 3.16 µM
[24] = second compound 3.16 µM, first compound 10 µM
[25] = second compound 10 µM, first compound 0.0316 µM
[26] = second compound 10 µM, first compound 0.1 µM
[27] = second compound 10 µM, first compound 0.316 µM
[28] = second compound 10 µM, first compound 1 µM
[29] = second compound 10 µM, first compound 3.16 µM
[30] = second compound 10 µM, first compound 10 µM
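Wherever IC50 is given: cells exposed to agents for seven days before viability read.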
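Wherever viability, T/C is given: cells exposed to agents for seven days before viability read; 100% = DMSO vehicle control wells and lower values mean fewer viable cells.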

| SMILES | IC50 (second compound 0.1 µM) | IC50 (second compound 0.316 µM) | IC50 (second compound 1 µM) | IC50 (second compound 3.16 µM) | IC50 (second compound 10 µM) | viability, T/C [1] | viability, T/C [2] | viability, T/C [3] | viability, T/C [4] | viability, T/C [5] | viability, T/C [6] | viability, T/C [7] | viability, T/C [8] | viability, T/C [9] | viability, T/C [13] | viability, T/C [14] | viability, T/C [19] | viability, T/C [20] | viability, T/C [25] | viability, T/C [26] | other results |
| --- | --- | --- | --- | --- | --- | --- | --- | --- | --- | --- | --- | --- | --- | --- | --- | --- | --- | --- | --- | --- | --- |
| CC1(C)CCC(CN2CCN(c3ccc(C(=O)NS(=O)(=O)c4ccc(NCC5CCOCC5)c([N+](=O)[O-])c4)c(Oc4cnc5[nH]ccc5c4)c3)CC2)=C(c2ccc(Cl)cc2)C1 + C=CC(=O)N1CCN(c2nc(=O)n(-c3c(C)ccnc3C(C)C)c3nc(-c4c(O)cccc4F)c(F)cc23)C(C)C1 | 8.94 µM | 9.58 µM | 8.59 µM | 9.15 µM | > 10 µM | 84.2% | 105% | 97.6% | 93.6% | 107% | 44.9% | 98.4% | 108% | 104% | 92.8% | 108% | 80.1% | 96.9% | 96.6% | 73.2% | viability, T/C [10]: 105%; viability, T/C [11]: 92.2%; viability, T/C [12]: 47.9%; viability, T/C [15]: 91.4%; viability, T/C [16]: 109%; viability, T/C [17]: 84.8%; viability, T/C [18]: 44.7%; viability, T/C [21]: 88.7%; viability, T/C [22]: 102%; viability, T/C [23]: 89.6%; viability, T/C [24]: 46.5%; viability, T/C [27]: 69.3%; viability, T/C [28]: 84.2%; viability, T/C [29]: 81.1%; viability, T/C [30]: 57% |
| Cn1nccc1Nc1nccc(-c2cc3c(s2)C(C)(C)N(CCN2CCOCC2)C3=O)n1 + CNCc1ccccc1-c1csc(C(C)Nc2nc(C)nc3cc(OC)c(OC)cc23)c1 | 7.27 µM | > 10 µM | 1.06 µM | < 0.0316 µM | < 0.0316 µM | 107% | 91.7% | 80.2% | 81.6% | 49.3% | 49.4% | 115% | 89.9% | 94.2% | 86% | 83.1% | 3.02% | 2.17% | 2.67% | 2.95% | viability, T/C [10]: 79.3%; viability, T/C [11]: 50.1%; viability, T/C [12]: 60.2%; viability, T/C [15]: 68%; viability, T/C [16]: 52.4%; viability, T/C [17]: 27.3%; viability, T/C [18]: 6.69%; viability, T/C [21]: 2.97%; viability, T/C [22]: 3.66%; viability, T/C [23]: 1.05%; viability, T/C [24]: 0.59%; viability, T/C [27]: 1.94%; viability, T/C [28]: 1.75%; viability, T/C [29]: 1.4%; viability, T/C [30]: 0.24% |
| CN(C)C/C=C/C(=O)Nc1cc2c(Nc3ccc(F)c(Cl)c3)ncnc2cc1O[C@H]1CCOC1 + CC1OCC2(CCN(c3cnc(Sc4ccnc(N)c4Cl)c(N)n3)CC2)C1N | > 0.1 µM | > 0.1 µM | > 0.1 µM | 0.0833 µM | > 0.1 µM | 80.1% | 81.6% | – | – | – | – | 75.5% | 78.1% | – | 104% | 79.5% | 54.5% | 48.8% | 50.9% | 55.4% | viability, T/C (second compound 0.1 µM, first compound 0.000316 µM): 95.9%; viability, T/C (second compound 0.1 µM, first compound 0.001 µM): 96.1%; viability, T/C (second compound 0.1 µM, first compound 0.00316 µM): 92.4%; viability, T/C (second compound 0.1 µM, first compound 0.01 µM): 71.3%; viability, T/C (second compound 0.316 µM, first compound 0.000316 µM): 80.7%; viability, T/C (second compound 0.316 µM, first compound 0.001 µM): 76.6%; viability, T/C (second compound 0.316 µM, first compound 0.00316 µM): 94.3%; viability, T/C (second compound 0.316 µM, first compound 0.01 µM): 81.1%; viability, T/C (second compound 1 µM, first compound 0.000316 µM): 93.2%; viability, T/C (second compound 1 µM, first compound 0.001 µM): 95.5%; viability, T/C (second compound 1 µM, first compound 0.00316 µM): 104%; viability, T/C (second compound 1 µM, first compound 0.01 µM): 97.9%; viability, T/C (second compound 3.16 µM, first compound 0.000316 µM): 56.4%; viability, T/C (second compound 3.16 µM, first compound 0.001 µM): 53%; viability, T/C (second compound 3.16 µM, first compound 0.00316 µM): 48.7%; viability, T/C (second compound 3.16 µM, first compound 0.01 µM): 51.1%; outcome (second compound 10 µM, first compound 0.000316 µM): inactive; outcome (second compound 10 µM, first compound 0.001 µM): inactive; viability, T/C (second compound 10 µM, first compound 0.00316 µM): 52.6%; outcome (second compound 10 µM, first compound 0.01 µM): inactive |
